According to patent publication US11352604B2, “Method of making cardiomyocytes from human pluripotent cells” (Wisconsin Alumni Research Foundation, priority 2016, dated 2022):

Experiments:
Format in all cases: cell-based, human
[1] = test system: day 5 cardiac progenitors; test: Methylcellulose colony-forming assay; conditions: 1% methylcellulose, four days, size >35 μm
Method: Day-5 cardiac progenitors from the 19-9-11 cell line were dissociated as above, but then passed 10 times through a syringe with 18 gauge needle and filtered twice through a 45 μm flow cytometry cell strainer. The cells were then counted and 100,000 cells were then mixed with 2 mL of K20 medium plus 10 μM Y-27632 ROCK-inhibitor (Tocris) containing 1% ES-Cult methylcellulose (Stemcell Technologies) and grown in one 6-well of a corning Ultra Low Attachment plate. ImageJ was used to measure colony diameter four days later and single cells observed the first day and after had diameters less than 35 μm.

[2] = test system: day 5 cardiac progenitors; test: RNA-seq differential gene expression, day 5 pI:C-primed vs untreated cardiac progenitors
Method: Day-5 cells from d3-5 untreated, TGFβ-treated, and pI:C-treated progenitors from the 19-9-11 iPS cell line were separately prepared as above for cell dissociation of progenitors from three different wells of each condition (for 9 total sequencing samples) and isolated as described above for RNA for RT-qPCR. rRNA-reduced Illumina TruSeq™ Stranded total RNA libraries were prepared and 1×100 bp single end sequencing was performed. To map and annotate RNA-seg data, STAR and HTSeq were used, respectively (Anders et al., 2015; Dobin and Gingeras, 2015). Annotated transcript counts were further processed with DeSEq2 for differential gene expression analysis (Love et al., 2014). Gene neighborhood analysis was performed with NEST (Jiang et al., 2015).

NFκB signaling = test: Western blot of NFκB and phosphorylated IκB in day 5 cardiac progenitors; conditions: pI:C days 3-5
Method: Frozen cell pellets from cardiac progenitors in the 19-9-11 iPS cell line were thawed and protein isolated in EBC lysis buffer (Boston BioProducts) supplemented with complete protease inhibitor tablets (Roche) rocking on ice for 1 hour to cause cell lysis. After the observation of lysis material and cell debris, protein/debris mixtures were centrifuged at >18,000×g for 15 minutes at 4° C. The protein-containing supernatant was quantified in a plate reader using the Biorad DC protein assay. 40 to 80 μg of protein was loaded in 6× βmercaptoethanol-containing Laemmli sample buffer (Biorad), boiled for 10 minutes at 95° C., then run on a 4-20% Criterion™ TGX™ gel (Biorad) for 30 minutes at 200 V. Proteins were then transferred at 10 V overnight at 4° C. to Immobilon-FL™ PVDF in a Criterion™ plate transfer cassette in Tris-Glycine transfer buffer (Biorad) with 20% methanol. Membranes were blocked for 1 hour at RT in Licor PBS blocking buffer, and then incubated with primary antibodies overnight 4° C. Antibodies were used at a dilution of 1:1000 (goat anti-Jag1, R&D systems) or 1:3000 (GAPDH, sigma) in Licor PBS blocking buffer. […] Licor secondary donkey anti-rabbit or anti-mouse antibodies were used at 1:15,000 for 1 hour at RT in Licor PBS blocking buffer, and after washing membranes were analyzed in a Licor Odyssey detection system. […]

[3] = day 5 progenitors, out of ~10,500 genes detected

Substance: polyinosinic-polycytidylic acid [pI:C]
- colony formation [1]: abundant multi-cellular colonies
- number of genes significantly downregulated [2, 3]: 912 genes
- number of genes significantly upregulated [2, 3]: 514 genes
- log2FoldChange ([2]; gene ACTN3): 0.6193
- log2FoldChange ([2]; gene ADAMTS18): −1.365
- log2FoldChange ([2]; gene ADCY5): 0.9552
- log2FoldChange ([2]; gene ADCY8): 0.6342
- log2FoldChange ([2]; gene ALDH1A2): 1.067
- log2FoldChange ([2]; gene ANKRD18A): 1.148
- log2FoldChange ([2]; gene AQP3): 0.8778
- log2FoldChange ([2]; gene ARL15): 0.6459
- log2FoldChange ([2]; gene ARSI): 0.6043
- log2FoldChange ([2]; gene ATP8B4): −1.545
- log2FoldChange ([2]; gene BAI2): 0.6046
- log2FoldChange ([2]; gene C20orf103): 0.9674
- log2FoldChange ([2]; gene CD82): 1.288
- log2FoldChange ([2]; gene CDC25B): 0.6173
- log2FoldChange ([2]; gene CHRNA3): 0.6865
- log2FoldChange ([2]; gene CHRNB4): 0.6085
- log2FoldChange ([2]; gene CNTFR): 0.8038
- log2FoldChange ([2]; gene COL2A1): 0.9666
- log2FoldChange ([2]; gene COL19A1): −0.827
- log2FoldChange ([2]; gene CRNDE): 0.7347
- log2FoldChange ([2]; gene CTNNA2): 0.8199
- log2FoldChange ([2]; gene DKFZp686D0853): 0.782
- log2FoldChange ([2]; gene DKK1): 0.8084
- log2FoldChange ([2]; gene DLL3): 0.7285
- log2FoldChange ([2]; gene DPYSL5): 0.6254
- log2FoldChange ([2]; gene DUSP4): −1.302
- log2FoldChange ([2]; gene EPHB3): 0.6122
- log2FoldChange ([2]; gene ERBB4): −0.836
- log2FoldChange ([2]; gene EYA1): 0.927
- log2FoldChange ([2]; gene FAM98B): 1.008
- log2FoldChange ([2]; gene FHDC1): 0.6831
- log2FoldChange ([2]; gene FOXC1): 0.9077
- log2FoldChange ([2]; gene FOXC2): 0.8203
- log2FoldChange ([2]; gene FOXL1): 1.223
- log2FoldChange ([2]; gene GJA4): −0.828
- log2FoldChange ([2]; gene GPC3): 0.6647
- log2FoldChange ([2]; gene GPR55): −1.691
- log2FoldChange ([2]; gene HAND1): −1.326
- log2FoldChange ([2]; gene HAPLN3): 0.8468
- log2FoldChange ([2]; gene HEY1): 0.6706
- log2FoldChange ([2]; gene HLA-DQA2): 0.881
- log2FoldChange ([2]; gene IFI16): 1.021
- log2FoldChange ([2]; gene IP6K3): 0.6953
- log2FoldChange ([2]; gene IRX3): 0.7452
- log2FoldChange ([2]; gene IRX5): 0.9174
- log2FoldChange ([2]; gene JAG1): 1.453
- log2FoldChange ([2]; gene KCNH7): 0.8627
- log2FoldChange ([2]; gene KCNJ16): −1.26
- log2FoldChange ([2]; gene KIAA0319): 0.6142
- log2FoldChange ([2]; gene KIAA1324): 0.914
- log2FoldChange ([2]; gene LIX1): 0.6361
- log2FoldChange ([2]; gene MMP16): 0.9772
- log2FoldChange ([2]; gene MN1): 0.8939
- log2FoldChange ([2]; gene MT1X): 0.7867
- log2FoldChange ([2]; gene MXRA5): −1.313
- log2FoldChange ([2]; gene MYO7A): 0.815
- log2FoldChange ([2]; gene NEFL): 0.6647
- log2FoldChange ([2]; gene NELL2): 0.6696
- log2FoldChange ([2]; gene NETO1): 0.918
- log2FoldChange ([2]; gene NFKBIZ): 0.7246
- log2FoldChange ([2]; gene NKX3-1): 0.9735
- log2FoldChange ([2]; gene NPY): 1.254
- log2FoldChange ([2]; gene NR2F1): 0.7356
- log2FoldChange ([2]; gene NRCAM): −1.533
- log2FoldChange ([2]; gene NRXN1): 0.724
- log2FoldChange ([2]; gene PANX2): 1.107
- log2FoldChange ([2]; gene PAPPA): 0.9808
- log2FoldChange ([2]; gene PDE1B): 0.9995
- log2FoldChange ([2]; gene PDGFD): 0.6619
- log2FoldChange ([2]; gene PPFIA2): 0.8189
- log2FoldChange ([2]; gene PPFIBP2): −0.835
- log2FoldChange ([2]; gene PPM1J): 0.6364
- log2FoldChange ([2]; gene PPP1R1A): 1.171
- log2FoldChange ([2]; gene PRSS12): 0.817
- log2FoldChange ([2]; gene PRSS23): 0.9765
- log2FoldChange ([2]; gene PTN): 0.7536
- log2FoldChange ([2]; gene PTPN12): 0.7631
- log2FoldChange ([2]; gene RARB): 0.9291
- log2FoldChange ([2]; gene RASSF10): −1.321
- log2FoldChange ([2]; gene RERG): 0.6913
- log2FoldChange ([2]; gene RHBDL3): 0.7861
- log2FoldChange ([2]; gene RND3): 0.6053
- log2FoldChange ([2]; gene ROBO3): 0.6174
- log2FoldChange ([2]; gene SCGB1A1): 0.7028
- log2FoldChange ([2]; gene SIX1): 1.397
- log2FoldChange ([2]; gene SLC24A3): 0.7397
- log2FoldChange ([2]; gene SLC28A2): −1.472
- log2FoldChange ([2]; gene SPOCK3): 0.6961
- log2FoldChange ([2]; gene STAR): 0.7806
- log2FoldChange ([2]; gene SYT4): 0.9363
- log2FoldChange ([2]; gene SYT6): 0.6752
- log2FoldChange ([2]; gene TBX3): −1.289
- log2FoldChange ([2]; gene TMEM132E): 0.6361
- log2FoldChange ([2]; gene TMOD1): −1.407
- log2FoldChange ([2]; gene TMPRSS13): 0.6086
- log2FoldChange ([2]; gene TOX): 0.6437
- log2FoldChange ([2]; gene TRPA1): −1.599
- log2FoldChange ([2]; gene TXNIP): 0.805
- log2FoldChange ([2]; gene USP27X): 0.6946
- log2FoldChange ([2]; gene VEPH1): −1.26
- phosphorylated IκB (NFκB pathway activation) (NFκB signaling): showed expression of phosphorylated (inactivated) inhibitor IκB
